Data: PubChem BioAssay (NCI)
Values joined by “and” are separate entries in the source; they are usually repeats but may differ in a detail not shown here. Equal values may be shown once.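 How tested: cells in 96-well plates exposed to compound for 48 hours at five concentrations. Abbreviation: GI50, concentration required for 50% inhibition of growth. At the TGI there is no net growth.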

How the values were obtained:
Assay in all cases: NCI tumour cell line growth inhibition, 48 h
NCI-H226 lung = system: NCI-H226 lung
UO-31 renal = system: UO-31 renal
KM12 colon = system: KM12 colon
SF-295 CNS = system: SF-295 CNS
SF-268 CNS = system: SF-268 CNS
LOX IMVI melanoma = system: LOX IMVI melanoma
SK-MEL-2 melanoma = system: SK-MEL-2 melanoma
ACHN renal = system: ACHN renal
COLO 205 colon = system: COLO 205 colon
TK-10 renal = system: TK-10 renal

SMILES | GI50 (NCI-H226 lung) [µM] | TGI (NCI-H226 lung) [µM] | GI50 (UO-31 renal) [µM] | TGI (UO-31 renal) | GI50 (KM12 colon) [µM] | TGI (KM12 colon) | GI50 (SF-295 CNS) [µM] | TGI (SF-295 CNS) | GI50 (SF-268 CNS) [µM] | TGI (SF-268 CNS) | GI50 (LOX IMVI melanoma) [µM] | TGI (LOX IMVI melanoma) | GI50 (SK-MEL-2 melanoma) [µM] | TGI (SK-MEL-2 melanoma) [µM] | GI50 (ACHN renal) [µM] | TGI (ACHN renal) [µM] | GI50 (COLO 205 colon) [µM] | TGI (COLO 205 colon) | GI50 (TK-10 renal) [µM] | TGI (TK-10 renal)
O=C1NC(=S)S/C1=C\c1cn(-c2ccccc2)nc1-c1ccccc1 | 20.3 | 76.5 | 4.39 | 25.2 µM | 6.24 | 21.7 µM | 3.33 | 17.2 µM | 17.2 | > 100 µM | 10 | 55.4 µM | 4.18 | 19.4 | 7.4 | 21.4 | 21.2 | 75.8 µM | 8 | 85.2 µM
COc1ccc(-c2cc(=O)c3c(O)c(OC)c(OC)c(OC)c3o2)cc1OC | – | > 100 | – | > 100 µM | – | > 100 µM | – | > 100 µM | – | 51.6 µM | – | > 100 µM | – | > 100 | – | > 100 | – | > 100 µM | – | > 100 µM
CCN1CCN(c2nc(C)cc(N(CCCNc3ccnc4cc(Cl)ccc34)Cc3ccc4c(c3)OCO4)n2)CC1 | 5.36 | 24.4 | 1.31 | 2.64 µM | 2.42 | 10.8 µM | 1.81 | 3.39 µM | 1.62 | 4.06 µM | 1.62 | 3.18 µM | 1.83 | 3.5 | 2.03 | 4.15 | 1.7 | 3.46 µM | 1.74 | 3.21 µM
O=C1NC(=NCCc2ccc(F)cc2)S/C1=C\c1ccc2ncccc2c1 | > 25 | > 25 | > 25 | > 25 µM | > 25 | > 25 µM | > 25 | > 25 µM | > 25 | > 25 µM | > 25 | > 25 µM | > 25 | > 25 | > 25 | > 25 | > 25 | > 25 µM | > 25 | > 25 µM
O=C1CC(c2c[nH]c3ccc(F)cc23)C(=O)N1 (configuration not stated) | > 100 | > 100 | > 100 | > 100 µM | > 100 | > 100 µM | > 100 | > 100 µM | > 100 | > 100 µM | > 100 | > 100 µM | > 100 | > 100 | > 100 | > 100 | > 100 | > 100 µM | > 100 | > 100 µM
COc1cc2cc(Oc3ccc(NC(=O)Nc4cc(C(F)(F)F)cc(C(F)(F)F)c4)cc3)c(C)nc2cc1OCCN1CCOCC1 | 1.6 | 6.53 | 1.01 | 4.06 µM | 1.53 | 5.95 µM | 1.14 | 2.92 µM | 1.98 | 8.06 µM | 1.46 | 5.09 µM | 1.74 | 6.91 | 1.53 | 5.42 | 1.02 | 2.18 µM | 3.7 | 12.5 µM
Nc1nnc2c(-c3ccccc3)[nH]nc2n1 | – | > 100 | – | > 100 µM | – | > 100 µM | – | > 100 µM | – | 58.7 µM | – | > 100 µM | – | > 100 | – | > 100 | – | > 100 µM | – | > 100 µM
O=C(CS(=O)(=O)c1nc2ccccc2nc1-c1ccccc1)Nc1ccc(F)cc1 | 85.7 | > 100 | 59.1 | > 100 µM | 31 | 97.7 µM | > 100 | > 100 µM | 91.8 | > 100 µM | 36.7 | > 100 µM | 51.9 | > 100 | > 100 | > 100 | 65.1 | > 100 µM | > 100 | > 100 µM
CSc1ccc(C2=C(c3ccccc3)C(=O)OC2)cc1 | 4.3 | 53.3 | 2.66 | > 80.3 µM | 0.356 | > 77 µM | 0.597 | 1.98 µM | 3.02 | > 64.7 µM | 0.385 | 38.7 µM | 1.64 | > 100 | 0.517 | 33.4 | 0.763 | > 100 µM | 1.49 | 18.4 µM
COC(=O)NC1C(C)OC(OC2C/C=C(/C)C3C=CC4C(OC5CC(OC6CCC(OC7CC(O)C(OC8CCC(O)C(C)O8)C(C)O7)C(C)O6)C(OC(C)=O)C(C)O5)C(C)CC(C)C4C3(C)/C(O)=C3/C(=O)OC4(CC(C=O)=CC(O)C4/C=C\2C)C3=O)CC1(C)[N+](=O)[O-] (configuration not stated) | – | 2.72 | 0.254 | 3.76 µM and 0.521 µM | 0.0714 | 2.04 µM and 0.337 µM | 0.271 | 2.76 µM and 4.15 µM | 0.105 | 11.2 µM and 9.73 µM | 0.281 | 1.32 µM and 0.808 µM | 0.0551 | – | – | 2.72 | 0.321 | 2.71 µM and 1.08 µM | 0.418 | 6.2 µM and 1.14 µM
CCCn1c2c(c3ccccc3c1=O)C(=O)c1ccccc1-2 | – | > 100 | – | > 100 µM | – | > 100 µM | – | > 100 µM | – | > 100 µM | – | > 100 µM | – | > 100 | – | > 100 | – | > 100 µM | – | > 100 µM
